Laboratory results taken from DBAASP.
Values after ≈ are worked out from the molar mass of the structure shown. Values joined by “and” are separate entries in the source; they are usually repeats but may differ in a detail not shown here. Identical values can stand only once. One block for each compound: values may come before it.

Assays:
Experiment in all cases: ≥ marks a high value that may be exact or a test limit, other limits are often not marked, values filed in µg/mL are converted to µM
[1] = tested on: Candida albicans CGMCC 2.2086
[2] = tested on: Candida parapsilosis CGMCC 2.3989
[3] = tested on: Candida tropicalis CGMCC 2.1975
Escherichia coli 078 = tested on: Escherichia coli 078
Escherichia coli K88 = tested on: Escherichia coli K88
Escherichia coli K99 = tested on: Escherichia coli K99
Escherichia coli UB1005 = tested on: Escherichia coli UB1005
[4] = tested on: Pseudomonas aeruginosa ATCC 27853
[5] = tested on: Salmonella enterica subsp. enterica serovar Pullorum ATCC 7913
[6] = tested on: Salmonella enterica subsp. enterica serovar Typhimurium ATCC 14028
[7] = tested on: Salmonella enterica subsp. enterica serovar Typhimurium C77-31
[8] = tested on: Staphylococcus aureus ATCC 25923
[9] = tested on: Staphylococcus aureus ATCC 43300
[10] = tested on: Staphylococcus epidermidis ATCC 12228
[11] = tested on: Aeromonas salmonicida 97-4
[12] = tested on: Aeromonas salmonicida 99-1
Candida albicans C627 = tested on: Candida albicans C627
[13] = tested on: Escherichia coli CGSC 4908
Escherichia coli DC2 = tested on: Escherichia coli DC2
[14] = tested on: Pseudomonas aeruginosa K799
[15] = tested on: Pseudomonas aeruginosa Z61
[16] = tested on: Salmonella enterica serovar typhimurium MS7953s
[17] = tested on: Salmonella enterica subsp. enterica serovar Typhimurium ATCC 14028s
[18] = tested on: Staphylococcus aureus C623
[19] = tested on: Staphylococcus epidermidis C621
Escherichia coli INV-a = tested on: Escherichia coli INV-a
[20] = tested on: Lactococcus lactis MG1363
Escherichia coli J2210 = tested on: Escherichia coli J2210
Escherichia coli JJ2489 = tested on: Escherichia coli JJ2489
Escherichia coli JW0013 = tested on: Escherichia coli JW0013
[21] = tested on: Escherichia coli JW0368 ΔsbmA
[22] = tested on: Escherichia coli JW2778 ΔygdD
Escherichia coli MC1041 = tested on: Escherichia coli MC1041
Escherichia coli = tested on: Escherichia coli
[23] = tested on: Salmonella enterica serovar Tennessee
[24] = tested on: Salmonella enterica subsp. enterica serovar Enteritidis MH91989
[25] = tested on: Salmonella enterica subsp. enterica serovar Infantis
[26] = tested on: Salmonella enterica subsp. enterica serovar Newport
[27] = tested on: Salmonella typhimurium SL1344
Escherichia coli JJ2487 = tested on: Escherichia coli JJ2487
Escherichia coli MC1061 = tested on: Escherichia coli MC1061
Escherichia coli O157:H7 = tested on: Escherichia coli O157:H7

SMILES: CC[C@H](C)[C@H](NC(=O)[C@H](CCCN=C(N)N)NC(=O)[C@H](C)NC(=O)[C@H](C)N)C(=O)N[C@H](C(=O)N[C@@H](CC(C)C)C(=O)N[C@@H](CCCN=C(N)N)C(=O)NCC(=O)N[C@@H](CCCN=C(N)N)C(=O)N[C@@H](Cc1ccccc1)C(=O)N[C@@H](CCCN=C(N)N)C(N)=O)[C@@H](C)CC [AARIILRGRFR]
MIC [1]: ≥ 128 µM | MIC [2]: ≥ 64 µM | MIC [3]: 16 µM (≈ 21.2 µg/mL) | MIC (Escherichia coli 078): 4 µM (≈ 5.31 µg/mL) | MIC (Escherichia coli K88): 2 µM (≈ 2.66 µg/mL) | MIC (Escherichia coli K99): 2 µM (≈ 2.66 µg/mL) | MIC (Escherichia coli UB1005): 4 µM (≈ 5.31 µg/mL) | MIC [4]: 16 µM (≈ 21.2 µg/mL) | MIC [5]: 4 µM (≈ 5.31 µg/mL) | MIC [6]: 4 µM (≈ 5.31 µg/mL) | MIC [7]: 8 µM (≈ 10.6 µg/mL) | MIC [8]: 16 µM (≈ 21.2 µg/mL) | MIC [9]: 8 µM (≈ 10.6 µg/mL) | MIC [10]: 8 µM (≈ 10.6 µg/mL)

SMILES: CC[C@H](C)[C@H](NC(=O)CNC(=O)[C@H](Cc1cnc[nH]1)NC(=O)[C@H](CC(C)C)NC(=O)CNC(=O)[C@H](CC(C)C)NC(=O)[C@H](CCCCN)NC(=O)[C@H](Cc1ccccc1)NC(=O)[C@H](CC(C)C)NC(=O)[C@H](CCCCN)NC(=O)CNC(=O)[C@H](Cc1c[nH]c2ccccc12)NC(=O)[C@H](Cc1ccccc1)NC(=O)CN)C(=O)NCC(=O)N[C@@H](CC(C)C)C(=O)N[C@@H](CC(C)C)C(=O)N[C@@H](Cc1cnc[nH]1)C(=O)N[C@@H](CC(C)C)C(=O)N[C@@H](Cc1cnc[nH]1)C(=O)N[C@@H](CC(C)C)C(C)=O [GFWGKLFKLGLHGIGLLHLHL]
MIC [11]: 6.79 µM (≈ 16 µg/mL) | MIC [12]: 3.39 µM (≈ 7.99 µg/mL) | MIC (Candida albicans C627): 6.79 µM (≈ 16 µg/mL) | MIC [13]: 3.39 µM (≈ 7.99 µg/mL) | MIC (Escherichia coli DC2): 3.39 µM (≈ 7.99 µg/mL) | MIC (Escherichia coli UB1005): 3.39 µM (≈ 7.99 µg/mL) | MIC [14]: 3.39 µM (≈ 7.99 µg/mL) | MIC [15]: 1.7 µM (≈ 4 µg/mL) | MIC [16]: 1.7 µM (≈ 4 µg/mL) | MIC [17]: 6.79 µM (≈ 16 µg/mL) | MIC [18]: 1.7 µM (≈ 4 µg/mL) | MIC [19]: 1.7 µM (≈ 4 µg/mL)

SMILES: CC[C@H](C)[C@H](N)C(=O)N[C@@H](CC(N)=O)C(=O)N[C@@H](Cc1c[nH]c2ccccc12)C(=O)N[C@@H](CCCCN)C(=O)NCC(=O)N[C@H](C(=O)N[C@@H](C)C(=O)N[C@@H](CC(C)C)C(=O)N[C@@H](CCSC)C(=O)N[C@@H](C)C(=O)N[C@@H](CCCCN)C(=O)N[C@@H](CCCCN)C(=O)N[C@@H](CC(C)C)C(=O)N[C@@H](CC(C)C)C(N)=O)[C@@H](C)CC [INWKGIALMAKKLL]
MIC (Escherichia coli INV-a): 7 µM (≈ 11.2 µg/mL) | MIC [20]: 2.5 µM (≈ 4 µg/mL)

The remaining lines, values ahead:

MIC (Escherichia coli J2210): 0.075 µM (≈ 0.177 µg/mL) | MIC (Escherichia coli JJ2489): 0.078 µM (≈ 0.184 µg/mL) | MIC (Escherichia coli JW0013): 0.037 µM (≈ 0.0872 µg/mL) | MIC [21]: 0.3 µM (≈ 0.707 µg/mL) | MIC [22]: 0.104 µM (≈ 0.245 µg/mL) | MIC (Escherichia coli MC1041): 0.075 µM (≈ 0.177 µg/mL) | MIC (Escherichia coli): 0.15 µM and 0.208 µM | MIC [23]: 0.075 µM (≈ 0.177 µg/mL) | MIC [24]: 0.15 µM (≈ 0.353 µg/mL) | MIC [25]: 0.098 µM (≈ 0.231 µg/mL) | MIC [26]: 0.037 µM (≈ 0.0872 µg/mL) | MIC [27]: 0.075 µM (≈ 0.177 µg/mL)
SMILES: CC[C@H](C)[C@H](NC(=O)[C@@H]1CCCN1C(=O)[C@H](CCCCN)NC(=O)[C@@H]1CCCN1C(=O)[C@@H]1CCCN1C(=O)[C@@H](NC(=O)[C@@H]1CCCN1C(=O)[C@H](CCCN=C(N)N)NC(=O)[C@@H]1CCCN1C(=O)[C@H](CCCN=C(N)N)NC(=O)[C@H](Cc1ccc(O)cc1)NC(=O)[C@H](CO)NC(=O)CNC(=O)[C@H](CCCCN)NC(=O)[C@H](CC(=O)O)NC(=O)[C@@H](N)C(C)C)[C@@H](C)O)C(=O)N[C@@H](Cc1ccc(O)cc1)C(=O)N[C@@H](CC(N)=O)C(=O)N[C@@H](CCCN=C(N)N)C(=O)N[C@@H](CC(N)=O)C(=O)O [VDKGSYRPRPTPPKPIYNRN]

MIC (Escherichia coli J2210): 0.16 µM (≈ 0.39 µg/mL) | MIC (Escherichia coli JJ2487): 0.16 µM (≈ 0.39 µg/mL) | MIC (Escherichia coli JW0013): 0.173 µM (≈ 0.42 µg/mL) | MIC (Escherichia coli MC1061): 0.0822 µM (≈ 0.2 µg/mL) | MIC (Escherichia coli O157:H7): 0.986 µM (≈ 2.4 µg/mL) | MIC [24]: 0.246 µM (≈ 0.6 µg/mL) | MIC [27]: 0.173 µM (≈ 0.42 µg/mL)
SMILES: CC[C@H](C)[C@H](NC(=O)[C@H](CCCN=C(N)N)NC(=O)[C@H](CCCN=C(N)N)NC(=O)[C@@H]1CCCN1C(=O)[C@@H]1CCCN1C(=O)[C@H](CCCN=C(N)N)NC(=O)[C@@H]1CCCN1C(=O)[C@H](CCCN=C(N)N)NC(=O)[C@@H]1CCCN1C(=O)[C@H](CCCN=C(N)N)NC(=O)[C@H](Cc1ccc(O)cc1)NC(=O)[C@@H]1CCCN1C(=O)[C@@H]1CCCN1C(=O)[C@H](CCCCN)NC(=O)[C@H](CC(=O)O)NC(=O)[C@@H](N)C(C)C)C(=O)N[C@@H](Cc1ccc(O)cc1)C(=O)N[C@@H](CC(N)=O)C(=O)N[C@@H](CCCN=C(N)N)C(N)=O [VDKPPYRPRPRPPRRIYNR]
